Results taken from paper PMC6160999, “Pharmacokinetics, Tissue Distribution and Excretion of a Novel Diuretic (PU-48) in Rats” (Pharmaceutics, 2018).
Where “and” joins values, the source holds several entries; their conditions need not be identical. Equal entries are not always repeated.

Legend:
[1] = Urine and feces excretion after single oral PU-48 SNEDDS; format: in vivo; conditions: rat, oral PU-48 SNEDDS 12 mg/kg
Procedure: (§1) Internal standard (IS, 25 μL) was added to 50 μL plasma, urine, or bile sample in a clean tube, placed into a water bath at 37 °C, and dried under a gentle stream of nitrogen gas, followed by the addition of 0.5 mL of ethyl acetate for liquid-liquid extraction. The mixture was shaken by a vortex mixer for 3 min, and then centrifuged at 8000 rpm (4200× g) for 10 min at 4 °C. After centrifugation, the upper organic phase was transferred into a clean centrifuge tube and then dried it again. The combined upper organic phases were evaporated to dryness at 37 °C under a gentle stream of nitrogen gas. The residue was reconstituted with 50 μL acetonitrile and then centrifuged at 13,000 rpm (12,000× g) for 10 min at 4 °C, the upper liquid was transferred into sample vials. Finally, 5 μL aliquots were injected into the LC–MS/MS system to analyze. Each tissue samples were homogenized in normal saline (0.9% NaCl, 1:3, w/v), and then centrifuged at 10,000× g for 10 min to get the supernatant. Other steps were the same as plasma sample preparation.
Feces samples were homogenized in 0.9% NaCl solution (1 g/10 mL), vortexed for 1 min and then centrifuged at 1200× g for 15 min to gather the supernatant. A volume of 25 μL of IS was added to 500 μL mixture in a clean tube, placed into a water bath at 37 °C and dried under a gentle stream of nitrogen gas, followed by the addition of 2 mL of ethyl acetate for twice liquid-liquid extraction (total 4 mL). The residue was reconstituted with 50 μL mobile phase and then 5 μL aliquots were injected into the HPLC system to analyze.
(§2) Six male rats were given single orally administration of PU-48 (12 mg/kg, 1.2 mg/mL in the SNEDDS formulation) and housed in separate stainless-steel metabolism cages. Both feces and urine samples were collected at 0–1, 1–2, 2–4, 4–6, 6–8, 8–12, 12–24, 24–48, 48–72 and 72–96 h. In a separate study, bile samples were collected 0–1, 1–2, 2–4, 4–6, 6–8, 8–12, 12–24, 24–48, 48–72 and 72–96 h after oral administration of PU-48 (12 mg/kg, 1.2 mg/mL in the SNEDDS formulation) to six bile duct-cannulated rats.

[2] = Bile excretion in bile duct-cannulated rats; format: in vivo; conditions: bile duct-cannulated rat, oral PU-48 SNEDDS 12 mg/kg
Procedure: as §1, §2

SMILES: COC(=O)c1sc2nc3ccc(OC)cc3cc2c1N [PU-48, Methyl 3-amino-6-methoxythieno [2,3-b] quinoline-2-carboxylate]
- Accumulative Excretion Amount, urine ([1]; 0–1 h): 61.2 ± 13.4 ng
- Accumulative Excretion Percentage, urine ([1]; 0–1 h): 0.0022 ± 0.0005%
- Excretion Amount, urine ([1]; 0–1 h): 61.2 ± 13.4 ng
- PU-48 Concentration in urine ([1]; 0–1 h): 627.9 ± 94.1 ng/mL
- Accumulative Excretion Amount, feces ([1]; 0–6 h): 0.1 µg
- Accumulative Excretion Percentage, feces ([1]; 0–6 h): 0.0022%
- Excretion Amount, feces ([1]; 0–6 h): 0.1 µg
- PU-48 Concentration in feces ([1]; 0–6 h): 0.1 µg/mL
- Accumulative Excretion Amount, urine ([1]; 1–2 h): 131.8 ± 37.9 ng
- Accumulative Excretion Percentage, urine ([1]; 1–2 h): 0.0047 ± 0.0015%
- Excretion Amount, urine ([1]; 1–2 h): 80.8 ± 41.0 ng
- PU-48 Concentration in urine ([1]; 1–2 h): 376.3 ± 184.2 ng/mL
- Accumulative Excretion Amount, urine ([1]; 2–4 h): 203.6 ± 48.4 ng
- Accumulative Excretion Percentage, urine ([1]; 2–4 h): 0.0073 ± 0.0018%
- Excretion Amount, urine ([1]; 2–4 h): 107.7 ± 30.0 ng
- PU-48 Concentration in urine ([1]; 2–4 h): 97.3 ± 20.1 ng/mL
- Accumulative Excretion Amount, urine ([1]; 4–6 h): 345.3 ± 107.2 ng
- Accumulative Excretion Percentage, urine ([1]; 4–6 h): 0.0123 ± 0.0038%
- Excretion Amount, urine ([1]; 4–6 h): 141.7 ± 78.0 ng
- PU-48 Concentration in urine ([1]; 4–6 h): 156.3 ± 65.6 ng/mL
- Accumulative Excretion Amount, feces ([1]; 6–8 h): 0.4 µg
- Accumulative Excretion Percentage, feces ([1]; 6–8 h): 0.0128%
- Excretion Amount, feces ([1]; 6–8 h): 0.4 µg
- PU-48 Concentration in feces ([1]; 6–8 h): 0.4 µg/mL
- Accumulative Excretion Amount, urine ([1]; 6–12 h): 496.4 ± 129.9 ng
- Accumulative Excretion Percentage, urine ([1]; 6–12 h): 0.0178 ± 0.0048%
- Excretion Amount, urine ([1]; 6–12 h): 151.1 ± 94.8 ng
- PU-48 Concentration in urine ([1]; 6–12 h): 83.6 ± 56.6 ng/mL
- Accumulative Excretion Amount, feces ([1]; 8–12 h): 12.5 ± 14.6 µg
- Accumulative Excretion Percentage, feces ([1]; 8–12 h): 0.44 ± 0.51%
- Excretion Amount, feces ([1]; 8–12 h): 12.5 ± 14.5 µg
- PU-48 Concentration in feces ([1]; 8–12 h): 6.9 ± 6.5 µg/mL
- Accumulative Excretion Amount, feces ([1]; 12–24 h): 31.5 ± 21.4 µg
- Accumulative Excretion Amount, urine ([1]; 12–24 h): 850.7 ± 589.4 ng
- Accumulative Excretion Percentage, feces ([1]; 12–24 h): 1.11 ± 0.73%
- Accumulative Excretion Percentage, urine ([1]; 12–24 h): 0.0306 ± 0.0216%
- Excretion Amount, feces ([1]; 12–24 h): 19.0 ± 11.3 µg
- Excretion Amount, urine ([1]; 12–24 h): 354.3 ± 485.8 ng
- PU-48 Concentration in feces ([1]; 12–24 h): 9.4 ± 5.3 µg/mL
- PU-48 Concentration in urine ([1]; 12–24 h): 65.3 ± 94.6 ng/mL
- Accumulative Excretion Percentage, urine ([1]; 24–36 h): 0.0380 ± 0.0250%
- Excretion Amount, urine ([1]; 24–36 h): 207.5 ± 123.7 ng
- PU-48 Concentration in urine ([1]; 24–36 h): 45.0 ± 36.9 ng/mL
- Accumulative Excretion Amount, feces ([1]; 24–48 h): 41.0 ± 21.7 µg
- Accumulative Excretion Percentage, feces ([1]; 24–48 h): 1.45 ± 0.74%
- Excretion Amount, feces ([1]; 24–48 h): 9.5 ± 9.5 µg
- PU-48 Concentration in feces ([1]; 24–48 h): 1.8 ± 1.9 µg/mL
- Excretion Amount, urine ([1]; 36–48 h): 158.4 ± 125.3 ng
- PU-48 Concentration in urine ([1]; 36–48 h): 25.6 ± 27.4 ng/mL
- Accumulative Excretion Amount, feces ([1]; 48–72 h): 44.3 ± 22.1 µg
- Accumulative Excretion Amount, urine ([1]; 48–72 h): 1319.8 ± 734.0 ng
- Accumulative Excretion Percentage, feces ([1]; 48–72 h): 1.56 ± 0.75%
- Accumulative Excretion Percentage, urine ([1]; 48–72 h): 0.0473 ± 0.0267%
- Excretion Amount, feces ([1]; 48–72 h): 3.2 ± 4.4 µg
- Excretion Amount, urine ([1]; 48–72 h): 103.2 ± 94.5 ng
- PU-48 Concentration in feces ([1]; 48–72 h): 0.5 ± 0.7 µg/mL
- PU-48 Concentration in urine ([1]; 48–72 h): 7.5 ± 5.9 ng/mL
- Accumulative Excretion Amount, urine ([1]; 72-96 h (within 96 h)): 1458.5 ± 733.1 ng
- Accumulative Excretion Percentage, urine ([1]; 72-96 h (within 96 h)): 0.0523 ± 0.0267% and 0.052 ± 0.0267% and 0.052%
- Excretion Amount, urine ([1]; 72-96 h): 138.7 ± 101.2 ng
- PU-48 Concentration in urine ([1]; 72-96 h): 9.0 ± 5.4 ng/mL
- Accumulative Excretion Amount, feces ([1]; 72–96 h (within 96 h)): 45.5 ± 22.0 µg
- Accumulative Excretion Percentage, feces ([1]; 72–96 h (within 96 h)): 1.61 ± 0.74% and 1.60%
- Excretion Amount, feces ([1]; 72–96 h): 1.2 ± 1.4 µg
- PU-48 Concentration in feces ([1]; 72–96 h): 0.2 ± 0.2 µg/mL
- Total excretion of PU-48 parent drug in the urine, feces, and bile ([1]; within 96 h): less than 2%
- Accumulative Excretion Amount, bile ([2]; 0–1 h): 78.5 ± 60.3 ng
- Accumulative Excretion Percentage, bile ([2]; 0–1 h): 0.0027 ± 0.0021%
- Excretion Amount, bile ([2]; 0–1 h): 78.5 ± 60.3 ng
- PU-48 Concentration in bile ([2]; 0–1 h): 143.8 ± 72.5 ng/mL
- Accumulative Excretion Amount, bile ([2]; 1–2 h): 153.6 ± 115.5 ng
- Accumulative Excretion Percentage, bile ([2]; 1–2 h): 0.0054 ± 0.0041%
- Excretion Amount, bile ([2]; 1–2 h): 75.2 ± 70.3 ng
- PU-48 Concentration in bile ([2]; 1–2 h): 123.1 ± 44.3 ng/mL
- Accumulative Excretion Amount, bile ([2]; 2–4 h): 218.9 ± 128.9 ng
- Accumulative Excretion Percentage, bile ([2]; 2–4 h): 0.0076 ± 0.0046%
- Excretion Amount, bile ([2]; 2–4 h): 65.3 ± 39.8 ng
- PU-48 Concentration in bile ([2]; 2–4 h): 84.7 ± 20.1 ng/mL
- Accumulative Excretion Percentage, bile ([2]; 4–6 h): 0.0085 ± 0.0044%
- Excretion Amount, bile ([2]; 4–6 h): 24.5 ± 14.3 ng
- PU-48 Concentration in bile ([2]; 4–6 h): 47.6 ± 19.4 ng/mL
- Accumulative Excretion Percentage, bile ([2]; 6–8 h): 0.0091 ± 0.0042%
- Excretion Amount, bile ([2]; 6–8 h): 18.7 ± 13.4 ng
- PU-48 Concentration in bile ([2]; 6–8 h): 41.1 ± 21.9 ng/mL
- Accumulative Excretion Amount, bile ([2]; 8–12 h): 301.8 ± 105.8 ng
- Accumulative Excretion Percentage, bile ([2]; 8–12 h): 0.0105 ± 0.0037%
- Excretion Amount, bile ([2]; 8–12 h): 39.7 ± 45.9 ng
- PU-48 Concentration in bile ([2]; 8–12 h): 33.3 ± 17.4 ng/mL
- Accumulative Excretion Amount, bile ([2]; 12–24 h): 339.9 ± 122.8 ng
- Accumulative Excretion Percentage, bile ([2]; 12–24 h): 0.0118 ± 0.0042%
- Excretion Amount, bile ([2]; 12–24 h): 38.1 ± 37.4 ng
- PU-48 Concentration in bile ([2]; 12–24 h): 33.4 ± 15.5 ng/mL
- Accumulative Excretion Amount, bile ([2]; 24–48 h): 350.7 ± 124.1 ng
- Accumulative Excretion Percentage, bile ([2]; 24–48 h): 0.0122 ± 0.0043%
- Excretion Amount, bile ([2]; 24–48 h): 10.8 ± 3.2 ng
- PU-48 Concentration in bile ([2]; 24–48 h): 9.4 ± 5.4 ng/mL
- Accumulative Excretion Amount, bile ([2]; 48–72 h): 355.5 ± 120.8 ng
- Accumulative Excretion Percentage, bile ([2]; 48–72 h): 0.0123 ± 0.0042%
- Excretion Amount, bile ([2]; 48–72 h): 4.8 ± 4.7 ng
- PU-48 Concentration in bile ([2]; 48–72 h): 5.1 ± 3.7 ng/mL
- Accumulative Excretion Amount, bile ([2]; 72–96 h (within 96 h)): 357.5 ± 120.1 ng
- Accumulative Excretion Percentage, bile ([2]; 72–96 h (within 96 h)): 0.0124 ± 0.0041% and 0.0124 ± 0.004% and 0.0124%
- Excretion Amount, bile ([2]; 72–96 h): 2.0 ± 1.8 ng
- PU-48 Concentration in bile ([2]; 72–96 h): 1.4 ± 0.9 ng/mL
